Results as given in US20100041756A1, “METHOD OF MODULATING B CELL FUNCTIONING” (priority 2004, published 2010).

Assays:
[1] = tested on: DBA/1 mice immunised with type II collagen in CFA; experiment: Development of collagen-induced arthritis, treatment from the day of immunisation (Example 4); format: in vivo, mouse
Procedure: Type II collagen was purified from bovine cartilage, as described [Williams, R. O. 2004, Methods Mol. Med. 98:207-216] and solubilized by stirring overnight at 4° C. in acetic acid (0.1M) or Tris buffer (0.05 M Tris, containing 0.2 M NaCl, pH 7.4). Tranilast was synthesised by Angiogen Pharmaceuticals Pty. Ltd. For in vivo studies Tranilast was dissolved at a maximum concentration of 10 mg/ml in 1% sodium bicarbonate by heating for 1 h at 70° C. Upon cooling, an emulsion was formed. For in vitro studies Tranilast was dissolved in dimethyl sulphoxide (DMSO). 3-Hydroxy-anthranilic acid (3-HAA) was purchased from Sigma (Poole, UK) and dissolved in PBS.
Male DBA/1 mice (8-12 weeks old) were immunized intradermally at the base of the tail with bovine type II collagen (200 μg) emulsified in complete Freund's adjuvant (CFA; Difco, West Moseley, UK). Arthritis was monitored clinically using the following scoring system: 0=normal, 1=slight swelling and/or erythema, and 2=pronounced oedematous swelling. Each limb was graded, giving a maximum score of 8 per mouse. In addition, paw-swelling was measured using calipers.
ELISA plates (Nunc, Uxbridge, UK) were coated with 2 μg/ml of bovine CII dissolved overnight in Tris Buffer (0.05 M Tris, containing 0.2 M NaCl, pH 7.4) blocked with 2% bovine serum albumin (BSA) and then incubated with serial dilutions of test sera. A reference sample was included on each plate. Bound total IgG, IgG1 or IgG2a was detected by incubation with HRP-conjugated sheep anti-mouse IgG, IgG1 or IgG2a, followed by TMB substrate. Optical density was measured at 450 nm.
In order to assess its anti-arthritic potential, Tranilast was injected into DBA/1 mice (200 mg/kg/day) from the day of immunisation with type II collagen in CFA. By day 28, 5 of 7 (71%) vehicle treated mice had developed arthritis of moderate severity (clinical score 2.8±0.6), whilst 1 of 7 (14%) Tranilast-treated mice had developed mild arthritis (clinical score 1).

[2] = tested on: inguinal lymph node cells; experiment: Cytokine production by draining (inguinal) lymph node cells of treated CIA mice (ELISA); format: in vivo, mouse; conditions: for IL-5 production by lymph node cells: treated mice (FIG. 8)
Procedure: FIG. 8 is a graphical representation depicting that mice with established CIA were treated for 10 days with 3,4-DAA or vehicle control. Mice were then killed and draining (inguinal) lymph node cells were cultured for 72 h in the absence or presence of type II collagen.
Inguinal lymph nodes were excised from Tranilast-treated and control mice. Alternatively, inguinal lymph nodes were removed from untreated arthritic mice (day 1-5 of arthritis) and Tranilast was added in vitro. In both cases, LNC were cultured in RPMI 1640 containing FCS (10% v/v), 2-mercaptoethanol (20 μM), L-glutamine (1% w/v), penicillin (100 U/ml) and streptomycin (100 μg/ml) in the presence or absence of type II collagen (50 μg/ml). Secreted cytokines (IFN-γ, IL-5, TNFα and IL-10) were measured after 72 h. by ELISA. In brief, 96 well ELISA plates were coated with the respective capture antibody, blocked with bovine serum albumin (2% w/v), and then incubated with LNC culture supernatants (neat) overnight at 4° C. After washing, bound cytokines were detected using biotinylated detect antibodies. A standard curve was generated using known concentrations of the appropriate recombinant cytokine and the concentrations of cytokines present in culture supernatants were estimated by reference to the standard curve.

[3] = tested on: T cells stimulated with anti-CD3/anti-CD28; experiment: Purified T cell proliferation, anti-CD3/anti-CD28, 3H-thymidine incorporation (Example 4); format: cell-based, mouse
Procedure: FIG. 10 is a graphical representation depicting that 3,4-DAA and 3-HAA inhibit B and T cell proliferation in vitro. Purified B and T cells were stimulated for 72 h with anti-CD40 (a), or anti-CD3/anti-CD28 (b) respectively, in the presence of varying doses of 3,4-DAA, or 3-HAA.
A single cell suspension was prepared from spleen by mincing through a cell strainer, and erythrocytes were lysed using an ammonium chloride solution (Sigma, St Louis, Mo., USA). B cells were positively enriched by using anti-IgM MACS microbeads, and T cells were positively enriched using anti-CD4 MACS microbeads and the MACS system, according to the manufacturer's guidelines (Miltenyi Biotec, Bergisch Gladbach, Germany). Purity was assessed by flow cytometric analysis (B cell>90% CD19+, T cell>90% CD4+). Cells were cultured at 5×10^5 cells/ml in 200 μl complete RPMI, as above, in a flat bottom 96-well plate and cultured for 72 h. B cells were stimulated with anti-CD40 monoclonal antibody (10 μg/ml; BD), and T cells were stimulated with 5 μg/ml plate-bound anti-CD3 (BD), 5 μg/ml soluble anti-CD28 (BD). Tranilast, 3-HAA, or vehicle (DMSO) were incubated at concentrations stated with the cultures. 48 hours after stimulation, 100 μl culture medium was collected, and cells were pulsed with 1 μCi ^3H thymidine per well for 18 h. Cells were then harvested and plates assessed for incorporation. Each assay was performed on a minimum of 3 occasions. Data shown is of one representative experiment, and is expressed as mean+/−SD of triplicate in culture. IFN-γ, IL-10 and IL-5 levels was assessed in the culture medium by ELISA, as above.

In the case of `COc1ccc(/C=C/C(=O)Nc2ccccc2C(=O)O)cc1OC` [Tranilast, 2-[[3-(3,4-dimethoxyphenyl)-1-oxo-2-propenyl]amino]benzoic acid], the “anti-collagen IgG1 or IgG2a levels in sera” value ([1]; 200 mg/kg/day from the day of immunisation) is reported as “no change”, the “mice that had developed arthritis by day 28” value ([1]; 200 mg/kg/day from the day of immunisation, 1 of 7 mice) is reported as 14% and the clinical score ([1]; day 28, 200 mg/kg/day from the day of immunisation) is reported as 1. For the same compound, the “IFN-γ production by lymph node cells” value ([2]; cultured 72 h, mice given 400 mg/kg for 10 days (FIG. 8)) was “significantly reduced”, the “IL-5 production by lymph node cells” value ([2]; cultured 72 h) was “unaffected” and the “IL-5 production by lymph node cells” value ([2]; cultured 72 h, listed as 3,4-DAA) was “significantly reduced”. The “cytokine production on restimulation with collagen” value ([2]; cultured 72 h in the presence of type II collagen (FIG. 8)) was “differences between the groups were not significant”, the IC50 ([3]; Mus musculus, T-cell, anti-CD3/CD28, 72 h, 3H-thymidine (FIG. 10B), read-out: IC50 for inhibition of T cell proliferation) was 28 µM and the T cell proliferation ([3]; anti-CD3/CD28, varying doses (FIG. 10B)) was “dose-dependently inhibited”.
